Earlier results as cited in patent publication US10722456B2, “Oral composition of celecoxib for treatment of pain” (Dr. Reddy's Laboratories Ltd., priority 2016, dated 2020).

Settings: oral administration

time for peak plasma concentrations to be achieved: approximately 3.0 hours
Compound: Cc1ccc(-c2cc(C(F)(F)F)nn2-c2ccc(S(N)(=O)=O)cc2)cc1 [Celecoxib, 4-[5-(4-methylphenyl)—3-(trifluoromethyl)-1H-pyrazol-1-yl] benzenesulfonamide]
